This is an account of results in patent publication US9890166B2, “Imidazopyrrolidine derivatives and their use in the treatment of disease” (NOVARTIS AG, priority 2013, dated 2018).

One test concerns the target BRD4 (His-Brd4(44-477)) (Homo sapiens (Human), UniProt O60885). Description: TR-FRET in-vitro binding assay for BRD4. The settings on record: single determination or n ≧ 2 independent determinations, read-out: Biochemical IC50 BRD4. In a few lines:
(§1)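 His-tagged BRD2, BRD3 and BRD4 fragments tested by TR-FRET at 8 compound concentrations, with DMSO stocks at 10 mM. Read on EnVision after 35 min incubation at 30° C.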

Another test has as its system K-562 cells. Kind of test: Cell growth inhibition assay (CellTiter-Glo), K-562.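 On all read-outs here: cellular ATP measured by luminescence after 4 days of exposure, 3-fold dilution series from 10 µM, DMSO vehicle-treated cells define 100%, cell-free medium wells −100%.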 The conditions noted are these: for GI50: Homo sapiens, K562, read-out: K-562 GI50; for K-562 TGI: K-562 cells, total growth inhibition, CellTiter-Glo.
In a further test the target is BRD3 (His-Brd3(20-477)) (Homo sapiens (Human), UniProt Q15059). Description: TR-FRET in-vitro binding assay for BRD3. The settings on record: single determination or n ≧ 2 independent determinations, read-out: Biochemical IC50 BRD3. In a few lines: as §1
Chain of BRD3 (His-Brd3(20-477)) (Q15059 20-477): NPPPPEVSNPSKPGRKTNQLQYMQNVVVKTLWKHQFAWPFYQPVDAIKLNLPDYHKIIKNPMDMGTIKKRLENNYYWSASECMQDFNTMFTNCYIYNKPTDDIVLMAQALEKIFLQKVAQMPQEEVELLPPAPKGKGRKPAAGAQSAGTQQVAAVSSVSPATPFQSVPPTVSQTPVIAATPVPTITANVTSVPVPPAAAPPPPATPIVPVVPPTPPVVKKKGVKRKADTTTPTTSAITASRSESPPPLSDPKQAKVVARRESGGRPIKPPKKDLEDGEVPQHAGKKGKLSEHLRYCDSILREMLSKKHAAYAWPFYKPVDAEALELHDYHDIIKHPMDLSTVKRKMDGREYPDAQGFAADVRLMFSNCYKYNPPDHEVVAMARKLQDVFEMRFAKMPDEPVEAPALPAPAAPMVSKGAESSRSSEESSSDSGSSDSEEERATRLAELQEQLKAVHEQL
The subject of another test is THP-1 cells. Description: Cell growth inhibition assay (CellTiter-Glo), THP-1.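 On all read-outs here: viability read as cellular ATP luminescence after 4 days, 3-fold dilution series from 10 µM, DMSO vehicle-treated cells taken as 100%, cell-free medium wells as −100%.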 The conditions noted are these: for GI50: Homo sapiens, THP-1, read-out: THP-1 GI50; for THP-1 TGI: THP-1 cells, total growth inhibition, CellTiter-Glo.
For the next test, the target named is BRD2 (His-Brd2(60-472)) (Homo sapiens (Human), UniProt P25440). Description: TR-FRET in-vitro binding assay for BRD2. The conditions noted are these: single determination or n ≧ 2 independent determinations, read-out: Biochemical IC50 BRD2. In a few lines: as §1
Chain of BRD2 (His-Brd2(60-472)) (P25440 60-472): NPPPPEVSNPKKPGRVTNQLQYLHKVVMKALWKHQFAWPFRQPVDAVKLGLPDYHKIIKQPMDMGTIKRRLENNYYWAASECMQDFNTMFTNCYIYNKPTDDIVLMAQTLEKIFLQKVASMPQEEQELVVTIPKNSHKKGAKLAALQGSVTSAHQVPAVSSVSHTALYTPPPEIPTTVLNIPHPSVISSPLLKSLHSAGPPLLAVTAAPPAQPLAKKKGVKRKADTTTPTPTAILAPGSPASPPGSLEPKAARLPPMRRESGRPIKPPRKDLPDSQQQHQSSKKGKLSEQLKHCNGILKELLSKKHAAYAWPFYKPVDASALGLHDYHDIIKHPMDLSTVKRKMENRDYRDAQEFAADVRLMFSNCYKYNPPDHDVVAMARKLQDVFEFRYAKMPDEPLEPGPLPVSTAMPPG
In test [1] the target is CREBBP bromodomain (His-CREBBP(1081-1197)) (Homo sapiens (Human), UniProt Q92793). Description: AlphaScreen in-vitro binding assay for CREBBP. The conditions noted are these: single determination or n ≧ 2 independent determinations, read-out: Biochemical IC50 CREBBP. In a few lines:
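Detection used nickel-chelate acceptor plus streptavidin donor AlphaScreen beads, 1 h room temperature. Percent inhibition fitted by non-linear regression to IC50.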

For another test, the system named is MV-4-11 cells. Kind of test: Cell growth inhibition assay (CellTiter-Glo), MV-4-11.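 On all read-outs here: cellular ATP luminescence after 4 days, 3-fold dilution series from 10 µM top dose, vehicle (0.1% DMSO) set to 100%, cell-free medium set to −100%, day 0 corrected.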 The conditions noted are these: for GI50: Homo sapiens, MV4-11, read-out: MV-4-11 GI50; for MV-4-11 TGI: MV-4-11 cells, total growth inhibition, CellTiter-Glo.

pIC50: −log10 of the molar value. Where only a bound is given, the exact number is not on record here.

Chain of CREBBP bromodomain (His-CREBBP(1081-1197)) (Q92793 1081-1197): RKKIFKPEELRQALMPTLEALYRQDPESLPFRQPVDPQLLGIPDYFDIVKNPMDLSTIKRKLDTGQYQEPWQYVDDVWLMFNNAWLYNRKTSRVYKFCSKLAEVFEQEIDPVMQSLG

In the case of `COC(=O)N1CC=C(c2nc3c(n2C(C)C)C(c2ccc(Cl)cc2)N(c2cc(C)c4nnc(C)n4c2)C3=O)CC1` (centres unmarked) [Example 65, methyl 4-(6-(4-chlorophenyl)-5-(3,8-dimethyl-[1,2,4]triazolo[4,3-a]pyridin-6-yl)-1-isopropyl-4-oxo-1,4,5,6-tetrahydropyrrolo[3,4-d]imidazol-2-yl)-5,6-dihydropyridine-1(2H)-carboxylate], the pIC50 is 7.62 on BRD4 (His-Brd4(44-477)), 7.56 on BRD3 (His-Brd3(20-477)), 7.30 on BRD2 (His-Brd2(60-472)) and 5.40 in test [1]. Also, the GI50 turned out to be 298 nM in the test on K-562 cells, 138 nM with THP-1 cells and 19.3 nM in the test with MV-4-11 cells. The “K-562 TGI” value with K-562 cells was greater than 10000 nM. Besides, the “THP-1 TGI” value in the test with THP-1 cells worked out at 299.5 nM. Further, the “MV-4-11 TGI” value in the test with MV-4-11 cells amounted to 38.95 nM.
With `CC(=O)N1CC=C(c2nc3c(n2C(C)C)C(c2ccc(Cl)cc2)N(c2cc(C)c4nnc(C)n4c2)C3=O)CC1` (centres unmarked) [Example 66], the pIC50 at BRD4 (His-Brd4(44-477)) was 7.50; at BRD3 (His-Brd3(20-477)), 7.18; at BRD2 (His-Brd2(60-472)) it was 7.07; in test [1], 5.46. Besides, the GI50 came to 5540 nM with K-562 cells, 1760 nM with THP-1 cells and 232 nM with MV-4-11 cells. For the same compound, the “K-562 TGI” value in the test on K-562 cells is greater than 10000 nM. Moreover, in the test on THP-1 cells, the “THP-1 TGI” value came to 5860 nM. Moreover, in the test with MV-4-11 cells, the “MV-4-11 TGI” value is 430 nM.
Regarding `Cc1cc(N2C(=O)c3nc(C4=CCN(S(C)(=O)=O)CC4)n(C(C)C)c3C2c2ccc(Cl)cc2)cn2c(C)nnc12` (centres unmarked) [Example 67, 6-(4-chlorophenyl)-5-(3,8-dimethyl-[1,2,4]triazolo[4,3-a]pyridin-6-yl)-1-isopropyl-2-(1-(methylsulfonyl)-1,2,3,6-tetrahydropyridin-4-yl)-5,6-dihydropyrrolo[3,4-d]imidazol-4(1H)-one], the negative logarithm of the IC50 (pIC50) at BRD4 (His-Brd4(44-477)) is 7.77; at BRD3 (His-Brd3(20-477)), 7.69; on BRD2 (His-Brd2(60-472)), 7.42; in test [1], 5.28. Moreover, the results for the GI50 in the test with K-562 cells, with THP-1 cells and in the test with MV-4-11 cells were 5400 nM, 1280 nM and 165 nM, respectively. The “K-562 TGI” value in the test with K-562 cells is greater than 10000 nM. In addition, in the test on THP-1 cells, the “THP-1 TGI” value was found to be 3275 nM. In addition, the “MV-4-11 TGI” value in the test on MV-4-11 cells was 332.5 nM.
As for `CCN1CC=C(c2nc3c(n2C(C)C)C(c2ccc(Cl)cc2)N(c2cc(C)c4nnc(C)n4c2)C3=O)CC1` (centres unmarked) [Example 68, 6-(4-chlorophenyl)-5-(3,8-dimethyl-[1,2,4]triazolo[4,3-a]pyridin-6-yl)-2-(1-ethyl-1,2,3,6-tetrahydropyridin-4-yl)-1-isopropyl-5,6-dihydropyrrolo[3,4-d]imidazol-4(1H)-one], the pIC50 on BRD4 (His-Brd4(44-477)) was 7.52; on BRD3 (His-Brd3(20-477)) it was 7.35; on BRD2 (His-Brd2(60-472)), 7.11; in test [1], 5.30. Further, the GI50 was 1380 nM in the test on K-562 cells, 258 nM in the test with THP-1 cells and 21.3 nM in the test on MV-4-11 cells. Further, the “K-562 TGI” value with K-562 cells is greater than 10000 nM. In addition, in the test on THP-1 cells, the “THP-1 TGI” value came out at 458 nM. For the same compound, the “MV-4-11 TGI” value in the test with MV-4-11 cells was 37.1 nM.
`Cc1cc(N2C(=O)c3nc(C4=CCN(C(=O)OCC(C)C)CC4)n(C(C)C)c3C2c2ccc(Cl)cc2)cn2c(C)nnc12` (centres unmarked) [Example 69, isobutyl 4-(6-(4-chlorophenyl)-5-(3,8-dimethyl-[1,2,4]triazolo[4,3-a]pyridin-6-yl)-1-isopropyl-4-oxo-1,4,5,6-tetrahydropyrrolo[3,4-d]imidazol-2-yl)-5,6-dihydropyridine-1(2H)-carboxylate]: the pIC50 is 7.92 on BRD4 (His-Brd4(44-477)), 7.89 at BRD3 (His-Brd3(20-477)), 7.62 on BRD2 (His-Brd2(60-472)) and 5.21 in test [1]. Also, the GI50 came to 184 nM in the test with K-562 cells, 63.4 nM in the test with THP-1 cells and 31.6 nM in the test on MV-4-11 cells. Further, in the test with K-562 cells, the “K-562 TGI” value is greater than 10000 nM. Also, the “THP-1 TGI” value in the test with THP-1 cells is 167.5 nM. For the same compound, the “MV-4-11 TGI” value with MV-4-11 cells is 58.45 nM.
For `CCOC(=O)N1CC=C(c2nc3c(n2C(C)C)C(c2ccc(Cl)cc2)N(c2cc(C)c4nnc(C)n4c2)C3=O)CC1` (centres unmarked) [Example 70, ethyl 4-(6-(4-chlorophenyl)-5-(3,8-dimethyl-[1,2,4]triazolo[4,3-a]pyridin-6-yl)-1-isopropyl-4-oxo-1,4,5,6-tetrahydropyrrolo[3,4-d]imidazol-2-yl)-5,6-dihydropyridine-1(2H)-carboxylate], the pIC50 at BRD4 (His-Brd4(44-477)) is 7.76; at BRD3 (His-Brd3(20-477)), 7.77; on BRD2 (His-Brd2(60-472)), 7.49; in test [1], 5.18. Moreover, the GI50 in the test on K-562 cells stood at 353 nM; in the test on THP-1 cells it was 59.9 nM; in the test with MV-4-11 cells it was 29.6 nM. Also, in the test on K-562 cells, the “K-562 TGI” value is greater than 10000 nM. Moreover, the “THP-1 TGI” value in the test on THP-1 cells came to 188 nM. The “MV-4-11 TGI” value with MV-4-11 cells is 41.3 nM.
For the compound `Cc1cc(N2C(=O)c3nc(C4=CCN(C(=O)OC(C)C)CC4)n(C(C)C)c3C2c2ccc(Cl)cc2)cn2c(C)nnc12` (centres unmarked) [Example 71, isopropyl 4-(6-(4-chlorophenyl)-5-(3,8-dimethyl-[1,2,4]triazolo[4,3-a]pyridin-6-yl)-1-isopropyl-4-oxo-1,4,5,6-tetrahydropyrrolo[3,4-d]imidazol-2-yl)-5,6-dihydropyridine-1(2H)-carboxylate], the pIC50 on BRD4 (His-Brd4(44-477)) is 7.73; at BRD3 (His-Brd3(20-477)) it was 7.74; on BRD2 (His-Brd2(60-472)), 7.48; in test [1], 5.37. Besides, the GI50 was determined as 228 nM in the test on K-562 cells, 63.7 nM in the test with THP-1 cells and 31.3 nM with MV-4-11 cells. In the test with K-562 cells, the “K-562 TGI” value is greater than 10000 nM. Moreover, the “THP-1 TGI” value in the test with THP-1 cells is 138.5 nM. For the same compound, the “MV-4-11 TGI” value in the test with MV-4-11 cells was determined as 44.5 nM.
As for `Cc1cc(N2C(=O)c3nc(C4=CCN(C(=O)NC(C)(C)C)CC4)n(C(C)C)c3C2c2ccc(Cl)cc2)cn2c(C)nnc12` (centres unmarked) [Example 72, N-(tert-butyl)-4-(6-(4-chlorophenyl)-5-(3,8-dimethyl-[1,2,4]triazolo[4,3-a]pyridin-6-yl)-1-isopropyl-4-oxo-1,4,5,6-tetrahydropyrrolo[3,4-d]imidazol-2-yl)-5,6-dihydropyridine-1(2H)-carboxamide], the pIC50 was 7.92 at BRD4 (His-Brd4(44-477)), greater than 7.96 on BRD3 (His-Brd3(20-477)), 7.64 at BRD2 (His-Brd2(60-472)) and 5.29 in test [1]. Further, the GI50 stood at 1340 nM with K-562 cells, 222 nM with THP-1 cells and 45.8 nM in the test with MV-4-11 cells. Moreover, the “K-562 TGI” value in the test on K-562 cells is greater than 10000 nM. In the test on THP-1 cells, the “THP-1 TGI” value was 746 nM. Also, the “MV-4-11 TGI” value in the test on MV-4-11 cells worked out at 96.9 nM.
Consider `COc1cc(N2C(=O)c3nc(C4=CCN(C)CC4)n(C(C)C)c3C2c2ccc(Cl)cc2)cc2c1nnn2C` (centres unmarked) [Example 73], for which the pIC50 at BRD4 (His-Brd4(44-477)) was 7.24; on BRD3 (His-Brd3(20-477)), 7.03; on BRD2 (His-Brd2(60-472)) it was 6.82; in test [1], 4.79. The GI50 was found to be 300 nM in the test with K-562 cells, 93.6 nM in the test on THP-1 cells and 30.6 nM with MV-4-11 cells. Also, the “K-562 TGI” value in the test on K-562 cells is greater than 10000 nM. In addition, the “THP-1 TGI” value in the test on THP-1 cells came to 254.5 nM. Besides, the “MV-4-11 TGI” value in the test on MV-4-11 cells was 52.7 nM.
`Cc1cc(N2C(=O)c3nc(C4CCNCC4)n(C(C)C)c3C2c2ccc(Cl)cc2)cn2c(C)nnc12` (centres unmarked) [Example 75, 6-(4-chlorophenyl)-5-(3,8-dimethyl-[1,2,4]triazolo[4,3-a]pyridin-6-yl)-1-isopropyl-2-(Piperidin-4-yl)-5,6-dihydropyrrolo[3,4-d]imidazol-4(1H)-one]: the pIC50 is 7.77 at BRD4 (His-Brd4(44-477)), 7.62 at BRD3 (His-Brd3(20-477)), 7.57 on BRD2 (His-Brd2(60-472)) and 5.31 in test [1]. For the same compound, the values for the GI50 in the test with K-562 cells, with THP-1 cells and in the test with MV-4-11 cells were 8650 nM, 1600 nM and 780 nM, respectively. The “K-562 TGI” value in the test with K-562 cells was greater than 10000 nM. Besides, in the test with THP-1 cells, the “THP-1 TGI” value is 8630 nM. Besides, in the test with MV-4-11 cells, the “MV-4-11 TGI” value worked out at 1125 nM.
With `COC(=O)N1CCC(c2nc3c(n2C(C)C)C(c2ccc(Cl)cc2)N(c2cc(C)c4nnc(C)n4c2)C3=O)CC1` (centres unmarked) [Example 76, methyl 4-(6-(4-chlorophenyl)-5-(3,8-dimethyl-[1,2,4]triazolo[4,3-a]pyridin-6-yl)-1-isopropyl-4-oxo-1,4,5,6-tetrahydropyrrolo[3,4-d]imidazol-2-yl)piperidine-1-carboxylate], the negative-log IC50 (pIC50) was 7.27 at BRD4 (His-Brd4(44-477)), 7.19 on BRD3 (His-Brd3(20-477)), 7.01 on BRD2 (His-Brd2(60-472)) and 5.69 in test [1]. Further, the GI50 came to 314 nM in the test with K-562 cells, 95.7 nM with THP-1 cells and 23.3 nM with MV-4-11 cells. The “K-562 TGI” value in the test with K-562 cells is greater than 10000 nM. Besides, in the test with THP-1 cells, the “THP-1 TGI” value worked out at 266 nM. Moreover, the “MV-4-11 TGI” value with MV-4-11 cells stood at 38.8 nM.
